The assay deals with 15-PGDH/HPGD (Homo sapiens (Human), UniProt P15428). The assay can be described thus: hPGDH inhibitor screening biochemical assay. The settings on record: 10 nM 15-PGDH/HPGD, 15 μM PGE2, 0.25 mM NAD; read-out: hPGDH: Average IC50. The procedure:
A hydroxyprostaglandin dehydrogenase inhibition screening biochemical assay can be performed to assess the synthesized inhibitors provided herein. Provided herein is an exemplary biochemical assay for hPGDH inhibitor screening.
The in vitro biochemical assay can be performed in white, 384 plates in total 20 μl reaction volume consisting of 10 nM of 15-PGDH/HPGD (R&D System #5660-DH), 15 μM Prostaglandin E2 (Sigma, Cat #P5640-10MG) and 0.25 mM β-Nicotinamide adenine dinucleotide sodium salt (Sigma, Cat #N0632-5G) made in reaction buffer (50 mM Tris-HCl, pH 7.5, 0.01% Tween 20) at 10-point dose response curve for test/tool compounds. Briefly, 5 μl (4×) of compounds solution and 5 μl (final concentration, 10 nM) of enzyme solution is added to white 384 well plates and incubated for 10 mins at 37° C. 5 μl (4×) of Prostaglandin E2 and 5 μl (4×) of β-Nicotinamide adenine dinucleotide sodium salt is added to the wells and incubated for 10 mins at rt. Fluorescence is recorded at ex/em=340 nm/485 nm. The percentage (%) inhibition of enzyme activity was determined relative to […] (1% DMSO) and IC50 was calculated using GraphPad prism software (four parameter-variable slope equation).

Where only a bound is given, the exact number is not on record here.

From patent US20230390274A1 (EPIRIUM BIO INC., priority 2020, published 2023) come the findings set out here.

Sequence of 15-PGDH/HPGD (P15428 whole entry): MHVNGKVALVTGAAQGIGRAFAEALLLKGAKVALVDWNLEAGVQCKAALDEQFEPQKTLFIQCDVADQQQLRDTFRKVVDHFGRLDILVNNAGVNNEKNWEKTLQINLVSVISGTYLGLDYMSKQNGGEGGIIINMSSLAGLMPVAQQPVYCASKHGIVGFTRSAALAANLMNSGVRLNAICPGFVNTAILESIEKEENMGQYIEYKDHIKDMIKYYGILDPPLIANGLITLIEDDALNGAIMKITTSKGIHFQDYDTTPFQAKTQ

As for `COc1ccc(-n2cc(Cl)c3cc(C(=O)N4CCC(F)CC4)cnc32)cc1` [A-165, (3-chloro-1-(4-methoxyphenyl)-1H-pyrrolo[2,3-b]pyridin-5-yl)(4-fluoropiperidin-1-yl)methanone], the IC50 was below 100 nM.

With `COc1ccc(-n2cc(Cl)c3cc(C(=O)N4CCCCC4)cnc32)cc1` [A-166], the IC50 was below 100 nM. Regarding `O=C(c1cnc2c(c1)c(Cl)cn2-c1ccc2c(c1)OC(F)(F)O2)N1CCC(F)CC1` [A-167], the IC50 was below 100 nM. As for `O=C(c1cnc2c(c1)c(Cl)cn2-c1ccc2c(c1)OC(F)(F)O2)N1CCCCC1` [A-168], the half-inhibitory concentration (IC50) is below 100 nM. As for `COc1cccc(-n2cc(Cl)c3cc(C(=O)N4CCCCC4)cnc32)c1` [A-169], the figure is below 100 nM; as for `O=C(c1cnc2c(c1)c(Cl)cn2-c1cncc(Cl)c1)N1CCCCC1` [A-170], below 100 nM; as for `COc1cncc(-n2cc(Cl)c3cc(C(=O)N4CCCCC4)cnc32)c1` [A-171], below 100 nM. Consider `O=C(c1cnc2c(ccn2-c2cnccn2)c1Cl)N1CCC(F)CC1` [A-172], for which the IC50 was below 100 nM. As for `O=C(c1cnc2c(c(Cl)cn2-c2cnccn2)c1Cl)N1CCC(F)CC1` [A-173], the IC50 is below 100 nM. In the case of `Cc1nc2c(ccn2-c2cnccn2)cc1C(=O)N1CCC(F)CC1` [A-174], the IC50 is at least 1000 nM.

As to `Cc1nc2c(cc1C(=O)N1CCC(F)CC1)c(Cl)cn2-c1cnccn1` [A-175], the IC50 is at least 1000 nM. As for `CCC(CC)n1cnc2cc(C(=O)N3CCC(F)CC3)cnc21` [A-176], the figure is at least 1000 nM.

Turning to `O=C(c1cnc2c(c1)ncn2-c1ccc(F)cc1)N1CCCCC1` [A-178], the half-inhibitory concentration (IC50) is below 100 nM. `O=C(c1cnc2c(c1)ncn2-c1ccc(F)c(F)c1)N1CCCCC1` [A-180]: the concentration for half-maximal inhibition (IC50) is below 100 nM. `O=C(c1cnc2c(c1)ncn2-c1ccc(OC(F)(F)F)cc1)N1CCCCC1` [A-182]: the IC50 is below 100 nM. Next, `CCOc1ccc(-n2cnc3cc(C(=O)N4CCCCC4)cnc32)cc1` [A-186]: below 100 nM. Next, `N#Cc1ccc(-n2cnc3cc(C(=O)N4CCC(F)(F)CC4)cnc32)cc1` [A-193]: below 100 nM. As to `N#Cc1ccc(-n2cnc3cc(C(=O)N4CC(Cl)C4)cnc32)cc1` [A-194], the IC50 is below 100 nM.

With `NC(=O)c1ccc(-n2cnc3cc(C(=O)N4CCC(F)(F)CC4)cnc32)cc1` [A-195], the IC50 is below 100 nM. On to `COc1ccc(-n2c(C)nc3cc(C(=O)N4CCCCC4)cnc32)cc1` [A-197], for which the IC50 was below 100 nM. As to `COc1ccc(-n2c(CCNC(C)=O)nc3cc(C(=O)N4CCC(F)CC4)cnc32)cc1` [A-198], the IC50 is at least 1000 nM. As to `Cc1c(C(=O)N2CCC(F)CC2)cnc2c1ccn2-c1ccc(C(N)=O)cc1` [A-202, 4-(5-(4-fluoropiperidine-1-carbonyl)-4-methyl-1H-pyrrolo[2,3-b]pyridin-1-yl)benzamide], the IC50 is below 100 nM. As for `NC(=O)c1ccc(-n2cc(Cl)c3cc(C(=O)N4CCC(F)CC4)cnc32)cc1` [A-203, 4-(3-chloro-5-(4-fluoropiperidine-1-carbonyl)-1H-pyrrolo[2,3-b]pyridin-1-yl)benzamide], the figure is below 100 nM; as for `NC(=O)c1ccc(-n2cc(Cl)c3cc(C(=O)N4CCCCC4)cnc32)cc1` [A-204, 4-(3-chloro-5-(piperidine-1-carbonyl)-1H-pyrrolo[2,3-b]pyridin-1-yl)benzamide], below 100 nM. Consider `Cc1c(C(=O)N2CCC(F)CC2)cnc2c1ccn2-c1ccc(C#N)cc1` [A-206, 4-(5-(4-fluoropiperidine-1-carbonyl)-4-methyl-1H-pyrrolo[2,3-b]pyridin-1-yl)benzonitrile], for which the IC50 was below 100 nM. Next, `N#Cc1ccc(-n2cc(Cl)c3cc(C(=O)N4CCC(F)CC4)cnc32)cc1` [A-207]: below 100 nM. As for `Cc1cc(-n2ccc3cc(C(=O)N4CCCCC4)cnc32)cnc1N` [A-208], the figure is below 100 nM; as for `Nc1ncc(-n2ccc3cc(C(=O)N4CCCCC4)cnc32)cc1Cl` [A-209], below 100 nM. Turning to `C[C@@H]1C[C@H](C)CN(C(=O)c2cnc3c(ccn3-c3ccc(C(N)=O)cc3)c2)C1` [A-210, 4-(5-((3R,5S)-3,5-dimethylpiperidine-1-carbonyl)-1H-pyrrolo[2,3-b]pyridin-1-yl)benzamide], the IC50 is below 100 nM.

In the case of `O=C(c1cnc2c(ccn2-c2ccc3[nH]ncc3c2)c1)N1CCC(F)(F)CC1` [A-211], the IC50 was below 100 nM.

Turning to `N/C(=N\O)c1ccc(-n2ccc3cc(C(=O)N4CCCCC4)cnc32)cc1` [A-212], the IC50 is below 100 nM. For `N/C(=N\O)c1cccc(-n2ccc3cc(C(=O)N4CCCCC4)cnc32)c1` [A-213], the IC50 is below 100 nM. Turning to `Cc1nc(-c2cccc(-n3ccc4cc(C(=O)N5CCCCC5)cnc43)c2)no1` [A-214], the IC50 is below 100 nM.

On to `CC(C)(C)C(=O)NCCNC(=O)c1ccc(-n2ccc3cc(C(=O)N4CCC(F)(F)CC4)cnc32)cc1` [A-215, 4-(5-(4,4-difluoropiperidine-1-carbonyl)-1H-pyrrolo[2,3-b]pyridin-1-yl)-N-(2-pivalamidoethyl)benzamide], for which the IC50 is below 100 nM. Next, `CC(C)NC(=O)c1ccc(-n2ccc3cc(C(=O)N4CCC(F)(F)CC4)cnc32)cc1` [A-216]: below 100 nM; `CC(C)(C)CNC(=O)c1cncc(-n2ccc3cc(C(=O)N4CCC(F)(F)CC4)cnc32)c1` [A-217, 5-(5-(4,4-difluoropiperidine-1-carbonyl)-1H-pyrrolo[2,3-b]pyridin-1-yl)-N-neopentylnicotinamide]: below 100 nM; `CC(C)(C)NC(=O)c1ccc(-n2ccc3cc(C(=O)N4CCC(F)(F)CC4)cnc32)cn1` [A-218, N-(tert-butyl)-5-(5-(4,4-difluoropiperidine-1-carbonyl)-1H-pyrrolo[2,3-b]pyridin-1-yl)picolinamide]: below 100 nM. As to `CCC(CC)NC(=O)c1cncc(-n2ccc3cc(C(=O)N4CCC(F)(F)CC4)cnc32)c1` [A-219, 5-(5-(4,4-difluoropiperidine-1-carbonyl)-1H-pyrrolo[2,3-b]pyridin-1-yl)-N-(pentan-3-yl)nicotinamide], the IC50 was below 100 nM.

In the case of `CS(=O)(=O)NCCNC(=O)c1ccc(-n2ccc3cc(C(=O)N4CCC(F)(F)CC4)cnc32)cc1` [A-220, 4-(5-(4,4-difluoropiperidine-1-carbonyl)-1H-pyrrolo[2,3-b]pyridin-1-yl)-N-(2-(methylsulfonamido)ethyl)benzamide], the IC50 was below 100 nM. As for `NCCNC(=O)c1ccc(-n2ccc3cc(C(=O)N4CCC(F)(F)CC4)cnc32)cc1` [A-221, N-(2-aminoethyl)-4-(5-(4,4-difluoropiperidine-1-carbonyl)-1H-pyrrolo[2,3-b]pyridin-1-yl)benzamide], the figure is below 100 nM.

As for `O=C(NC(CO)CO)c1ccc(-n2ccc3cc(C(=O)N4CCC(F)(F)CC4)cnc32)cc1` [A-222], the IC50 was below 100 nM. Take `O=C(NCCO)c1ccc(-n2ccc3cc(C(=O)N4CCC(F)(F)CC4)cnc32)cc1` [A-223]: the IC50 is below 100 nM.

Turning to `N#Cc1ccc(-n2ccc3cc(C(=O)N4C[C@H](F)C[C@H](F)C4)cnc32)cc1` [A-224, 4-(5-((3R,5S)-3,5-difluoropiperidine-1-carbonyl)-1H-pyrrolo[2,3-b]pyridin-1-yl)benzonitrile], the IC50 is below 100 nM. As for `CCNC(=O)c1ccc(-n2ccc3cc(C(=O)N4CCC(F)(F)CC4)cnc32)cc1` [A-225], the figure is below 100 nM.

Usually IC50 stands for the concentration at which inhibition is half-maximal.
